The source of these data is PMC6628362, “A New Strategy for Glioblastoma Treatment: In Vitro and In Vivo Preclinical Characterization of Si306, a Pyrazolo[3,4-d]Pyrimidine Dual Src/P-Glycoprotein Inhibitor” (Cancers, 2019).

Entries after “also recorded” stand apart in the source; their conditions may differ.

In one data set the test system is A172. Nature of the data set: Cell viability, A172 (Table S1). The format is cell-based. Particulars: Homo sapiens, A 172; A172, 72 h. The procedure: 1. Cell Growth Inhibition by Dasatinib, Si306 and Pro-Si306
GB cell lines BT138, T98G and A172 were treated with Si306 and pro-Si306 at concentrations ranging from 1 to 100 µM, or with DMSO as a control. Cell viability was evaluated 72 h after treatment for T98G and A172 cell lines and after 24 h for BT-138. In table S1 the IC50 values are reported.
Table S1. Sensitivity of glioblastoma multiforme (GBM) cells to Si306 and pro-Si306 expressed as IC50 […]
Figure S1. Rho 123 accumulation in U87-TxR cells treated with increasing concentrations of TQ (A), Dex-VER (B), Si306 (C) and pro-Si306 (D).
(1 picture or pasted object on this page, not shown here)

The test system of the next data set is U87-TxR. Nature of the data set: MTT cell growth inhibition, MDR U87-TxR. The format is cell-based, Human. The conditions noted are these: 72 h, n = 3. The procedure:
(§1) Human GBM cell lines U87 and LN-229 were purchased from the American Type Culture Collection, Rockville, MD, USA. U87-TxR cells were selected from U87 cells by continuous exposure to increasing concentrations of PTX [76]. LN-299, U87 and U87-TxR cells were grown in Minimum Essential Medium with 10% fetal bovine serum, 2 mM L-glutamine and 5000 U/mL penicillin, 5 mg/mL streptomycin solution. Cell lines were maintained at 37 °C in a humidified 5% CO2 atmosphere. They were sub-cultured at 72 h intervals using 0.25% trypsin/EDTA and 16,000 cells/cm^2 were seeded into a fresh medium.
(§2) MTT assay was used to assess the viability of U87 and U87-TxR cells (AppliChem GmbH, Taufkirchen, Germany). After reaching the confluence in 25 cm^2 tissue flasks, U87 and U87-TxR cells were trypsinized. Cells were seeded at the optimal density determined in initial experiments: 4000 cell/well into flat-bottomed 96-well tissue culture plates. Following the overnight incubation, cells were treated with Si306, pro-Si306 and dasatinib (1–25 µM) for 72 h. In addition, the combined effects of Si306 and pro-Si306 with PTX were evaluated in MDR GBM cells. To that end, two concentrations of Si306 and pro-Si306 (0.2 μM and 0.5 μM) were combined with increasing concentrations of PTX (0.1–2 μM) in simultaneous treatment. The sensitization of U87-TxR cells to PTX was studied after 72 h. Briefly, MTT was added to each well in a final concentration of 0.2 mg/mL for 4 h to induce the formation of the formazan in cells with intact/viable mitochondria. Then, produced formazan was dissolved in DMSO, and the absorbance was measured at 540 nm on a microplate reader (LKB 5060-006 Micro Plate Reader, Vienna, Austria). IC50 values were calculated by nonlinear regression analysis using GraphPad Prism 6.0 for Windows (GraphPad Software, La Jolla, CA, USA).

Details of data set [1]: method as in PMID 28650650. Particulars: cited from earlier work.
The next data set concerns U87. Description: MTT cell growth inhibition, U87. It is filed as cell-based, Human. The conditions noted are these: 72 h, n = 3. The procedure:
as §1, §2

Another data set deals with P-gp (Homo sapiens, UniProt P08183). Nature of the data set: Rho 123 accumulation assay (P-gp inhibition) in U87-TxR cells. Particulars: 30 min.
Another data set concerns the target T1, CYP3A4 (Homo sapiens, UniProt P08684).
T1 construct: Incubations were carried out in a mix containing human liver microsomes (1 mg/mL of protein); from tissue; host or cells: human liver microsomes
Nature of the data set: CYP3A4 inhibition in human liver microsomes (testosterone 6β-hydroxylation). It is filed as in vitro ADME. The procedure: The inhibition of cytochrome P450 3A4 isoform by Si306 and pro-Si306 was measured by determining its activity on the substrate testosterone.
The activity of CYP3A4 was evaluated by measuring the 6β-hydroxylated testosterone formation (CYP3A4-specific reaction). The amount of 6β-hydroxylated metabolite was assessed in the absence and presence of Si306, pro-Si306 and ketoconazole (testosterone concentration of 100 μM in phosphate buffer 0.025 M, pH 7.4). […] Ketoconazole was used as standard selective inhibitor of CYP3A4 isoenzyme. Incubations were carried out in a mix containing human liver microsomes (1 mg/mL of protein) in phosphate buffer 0.025 M, pH 7.4, NADPH (200 μM) previously solubilized in a MgCl2 48 mM solution. The final incubation volume was 0.25 mL. After a 40 min-incubation period at 37 °C, the reaction was stopped by adding 1 mL of acetonitrile in the presence of corticosterone 2 μM as internal standard. The samples were centrifuged for 20 min at 5000 rpm. Concentrations of testosterone and its metabolite 6β-hydroxytestosterone were assessed by the HPLC method with UV detection. Calibration curve for quantitative analysis of 6β-hydroxytestosterone in the samples was obtained using commercial 6β-hydroxytestosterone purchased from Sigma Aldrich. For the statistical analysis, GraphPad InStat 3.0 (GraphPad Software, San Diego, CA, USA) was used.

Chain of P-gp (P08183 whole entry): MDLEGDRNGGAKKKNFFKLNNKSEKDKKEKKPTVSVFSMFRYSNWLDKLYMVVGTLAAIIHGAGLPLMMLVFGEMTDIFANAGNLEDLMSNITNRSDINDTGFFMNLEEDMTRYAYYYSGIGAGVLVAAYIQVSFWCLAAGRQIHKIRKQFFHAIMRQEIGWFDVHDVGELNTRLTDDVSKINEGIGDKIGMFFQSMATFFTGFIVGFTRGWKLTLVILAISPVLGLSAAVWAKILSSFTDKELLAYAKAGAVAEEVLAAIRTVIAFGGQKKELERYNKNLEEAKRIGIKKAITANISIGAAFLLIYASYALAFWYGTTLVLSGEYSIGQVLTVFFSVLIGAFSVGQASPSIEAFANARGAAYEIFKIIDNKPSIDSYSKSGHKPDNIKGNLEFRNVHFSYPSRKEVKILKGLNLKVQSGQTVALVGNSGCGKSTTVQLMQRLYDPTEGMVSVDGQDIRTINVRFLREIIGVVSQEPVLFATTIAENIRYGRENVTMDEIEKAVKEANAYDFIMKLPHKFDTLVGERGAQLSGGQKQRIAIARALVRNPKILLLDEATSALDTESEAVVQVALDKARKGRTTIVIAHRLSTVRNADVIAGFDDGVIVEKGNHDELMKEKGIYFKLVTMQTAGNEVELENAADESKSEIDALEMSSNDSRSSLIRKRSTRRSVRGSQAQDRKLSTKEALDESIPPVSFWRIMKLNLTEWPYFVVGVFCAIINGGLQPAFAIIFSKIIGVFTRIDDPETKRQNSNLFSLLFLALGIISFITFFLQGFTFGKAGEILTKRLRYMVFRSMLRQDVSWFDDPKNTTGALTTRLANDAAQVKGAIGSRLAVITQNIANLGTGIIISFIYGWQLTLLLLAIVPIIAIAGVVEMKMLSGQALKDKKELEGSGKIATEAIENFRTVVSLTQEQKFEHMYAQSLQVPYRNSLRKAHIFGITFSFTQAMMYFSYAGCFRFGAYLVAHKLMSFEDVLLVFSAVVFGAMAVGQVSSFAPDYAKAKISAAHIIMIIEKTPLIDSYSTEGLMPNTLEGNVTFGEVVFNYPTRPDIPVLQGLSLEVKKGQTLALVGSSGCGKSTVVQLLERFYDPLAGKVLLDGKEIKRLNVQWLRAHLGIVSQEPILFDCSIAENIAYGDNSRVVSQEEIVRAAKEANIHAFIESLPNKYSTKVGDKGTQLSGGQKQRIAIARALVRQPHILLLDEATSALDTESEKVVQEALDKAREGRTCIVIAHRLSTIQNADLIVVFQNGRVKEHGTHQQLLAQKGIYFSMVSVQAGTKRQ
T1 sequence (P08684 whole entry): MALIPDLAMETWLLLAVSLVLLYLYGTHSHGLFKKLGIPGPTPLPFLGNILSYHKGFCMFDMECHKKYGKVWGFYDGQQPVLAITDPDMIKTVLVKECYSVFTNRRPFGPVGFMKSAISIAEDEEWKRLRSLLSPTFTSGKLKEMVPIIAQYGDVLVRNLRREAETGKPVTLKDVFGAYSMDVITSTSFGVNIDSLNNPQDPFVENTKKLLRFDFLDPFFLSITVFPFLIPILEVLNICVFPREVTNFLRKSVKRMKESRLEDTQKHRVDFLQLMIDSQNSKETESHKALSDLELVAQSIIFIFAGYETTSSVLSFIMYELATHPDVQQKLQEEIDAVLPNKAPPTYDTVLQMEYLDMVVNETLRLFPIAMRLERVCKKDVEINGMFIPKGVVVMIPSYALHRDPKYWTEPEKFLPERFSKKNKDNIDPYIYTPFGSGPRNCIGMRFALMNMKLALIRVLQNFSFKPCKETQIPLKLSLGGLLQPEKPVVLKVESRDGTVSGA
Protocol for P-gp: At the end of the accumulation period, the cells were pelleted by centrifugation, washed with PBS and placed in cold PBS. The samples were kept on ice in a dark setting until the analysis on CyFlow Space Partec flow-cytometer (Sysmex Partec GmbH, Germany). […] A minimum of 10,000 events was assayed for each sample and the obtained results were analyzed using Summit Dako Software (ver. 4.3, Fort Collins, CO, USA).

The IC50 is the concentration that inhibits the measured activity by half. A higher IC50 goes with a need for much substance. For orientation: inhibition means the percentage by which the read-out fell short of the control. For the molecule `ClC(Cn1ncc2c(Nc3cccc(Br)c3)nc(SCCN3CCOCC3)nc21)c1ccccc1` (stereo not shown) [Si306], the IC50 was 1.69 ± 0.6 µM in the data set on A172; 4.78 ± 0.322 µM with U87-TxR; 4.8 µM in the data set on U87-TxR (Homo sapiens, U87-TxR); 3.08 ± 0.26 µM with U87; about 3 µM with U87 (Homo sapiens, U-87 MG); 8.5 µM on P-gp (IC50 of P-gp inhibition, Rho 123 accumulation). For the same molecule, the solubility result in data set [1] is given as “very poorly water soluble”. Further, at P-gp (5 µM), the “P-gp activity (Rho 123 intracellular accumulation)” value is “considerably inhibited P-gp activity; also recorded: significant suppression of P-gp activity”. In addition, the inhibition at 40 min, 50 μM on CYP3A4 (pH 7.4, probe testosterone 100 μM (6β-hydroxylation), highest concentration used (1–50 μM range), not significative, read-out: maximum inhibition of CYP3A4 (testosterone 6β-hydroxylation)) turned out to be 20%. For the same molecule, the “interaction with CYP3A4” value on CYP3A4 (up to 50 μM) is on record as “do not interact with CYP3A4”.
